According to PMC7343857, “New natural agonists of the transient receptor potential Ankyrin 1 (TRPA1) channel” (Scientific Reports, 2020):
pEC50: −log10 of the molar value. Where two headings read alike, the source gives them in different places.

Target: T1, hTRPA1 (Homo sapiens, UniProt O75762)
T1 construct: gene TRPA1
Test: ratiometric calcium imaging and whole-cell patch clamp in CHO cells with inducible hTRPA1; non-induced cells as control
Assay type: cell-based

T1 sequence (O75762 whole entry): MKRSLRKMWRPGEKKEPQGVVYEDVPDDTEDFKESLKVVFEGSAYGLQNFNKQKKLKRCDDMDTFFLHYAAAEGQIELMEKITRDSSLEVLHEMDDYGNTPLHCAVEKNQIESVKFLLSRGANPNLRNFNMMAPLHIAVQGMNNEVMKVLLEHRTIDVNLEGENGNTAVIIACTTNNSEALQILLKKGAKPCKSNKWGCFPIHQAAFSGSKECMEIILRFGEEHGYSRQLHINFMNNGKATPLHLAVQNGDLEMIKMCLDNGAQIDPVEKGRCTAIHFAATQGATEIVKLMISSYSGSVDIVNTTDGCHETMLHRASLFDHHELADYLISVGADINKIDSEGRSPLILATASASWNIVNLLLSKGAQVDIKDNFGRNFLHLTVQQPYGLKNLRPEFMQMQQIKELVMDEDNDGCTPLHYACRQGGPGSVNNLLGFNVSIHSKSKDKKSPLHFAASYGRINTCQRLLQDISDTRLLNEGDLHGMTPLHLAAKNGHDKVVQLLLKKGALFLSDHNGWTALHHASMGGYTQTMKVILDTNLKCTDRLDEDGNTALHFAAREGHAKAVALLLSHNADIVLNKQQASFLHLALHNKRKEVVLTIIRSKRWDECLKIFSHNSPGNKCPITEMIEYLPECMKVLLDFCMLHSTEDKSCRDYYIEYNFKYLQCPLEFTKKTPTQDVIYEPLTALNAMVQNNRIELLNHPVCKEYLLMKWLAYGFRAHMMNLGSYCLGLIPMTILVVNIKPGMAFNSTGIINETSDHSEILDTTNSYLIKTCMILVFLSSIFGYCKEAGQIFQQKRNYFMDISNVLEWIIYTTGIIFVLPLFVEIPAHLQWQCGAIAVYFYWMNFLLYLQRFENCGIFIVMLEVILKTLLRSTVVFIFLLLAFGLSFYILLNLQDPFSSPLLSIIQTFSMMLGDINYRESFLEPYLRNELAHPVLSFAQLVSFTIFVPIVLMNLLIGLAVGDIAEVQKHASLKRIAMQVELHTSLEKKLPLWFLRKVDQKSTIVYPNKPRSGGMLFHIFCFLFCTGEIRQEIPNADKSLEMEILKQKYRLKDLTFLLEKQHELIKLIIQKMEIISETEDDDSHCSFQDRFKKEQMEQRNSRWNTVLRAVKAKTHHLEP

Row | Compound | pEC50 (read-out: EC50) | pEC50
1 | CC(C)c1ccc(C=O)cc1 [cuminaldehyde] | 3.14 | 
2 | C/C=C(\C)C=O [tiglic aldehyde] | 2.83 | 
3 | COc1ccc(C=O)cc1 [p-anisaldehyde] |  | 3.04
